{"source": "patent US12157730B2", "about": "“Heteroaryl derivative, method for producing same, and pharmaceutical composition comprising same as effective component” (VORONOI INC., priority 2019, dated 2024)", "data": [{"molecular_target": "T1, Ba/F3 cell EGFR Exon20 ins NPH (Homo sapiens, UniProt P00533, INS773NPH)", "T1 construct": "expressed in transfected cells; host or cells: Ba/F3", "assay": "Ba/F3 cell proliferation suppression, EGFR Exon20 ins NPH", "type": "cell-based", "conditions": "GI50 class; Ba/F3 cell line with NPH inserted at Exon20 of EGFR; 72 hours", "outline": "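Growth suppression determined as GI50 following 72 h exposure across 12 concentrations up to 50 um, with viability by luminescent ATP assay (CellTiter-Glo).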", "values": [{"smiles": "C=CC(=O)Nc1cc(Nc2cc(N3OCC[C@@H]3c3ccc(F)c(Cl)c3)ncn2)c(OC)cc1N1CCC(N2C[C@H]3CC[C@@H](C2)O3)CC1", "note": "[compound 871, N-(2-(4-((1R,5S)-8-oxa-3-azabicyclo [3.2.1]octan-3-yl)piperidine-1-yl)-5-((6-((R)-3-(3-chloro-4-fluorophenyl)isoxazolidine-2-yl)pyrimidine-4-yl)amino)-4-methoxyphenyl) acrylamide]", "Ba/F3 (NPH) Activity": "A (GI50 < 50 nM)"}, {"smiles": "C=CC(=O)Nc1cc(Nc2cc(N3OCC[C@@H]3c3ccc(F)c(Cl)c3)ncn2)c(OC)cc1N1CCC(N2C[C@@H](C)N(C3CC3)C[C@H]2C)CC1", "note": "[Example 178, N-(5-((6-((R)-3-(3-chloro-4-fluorophenyl)isoxazolidine-2-yl)pyrimidine-4-yl)amino)-2-(4-((2R,5R)-4-cyclopropyl-2,5-dimethylpiperazine-1-yl)piperidine-1-yl)-4-methoxyphenyl) acrylamide]", "Ba/F3 (NPH) Activity": "A (GI50 < 50 nM)"}, {"smiles": "C=CC(=O)Nc1cc(Nc2cc(N3OCC[C@@H]3c3ccc(Cl)c(F)c3)ncn2)c(OC)cc1N1CCC(N2C[C@H]3C[C@@H]2CN3CC)CC1", "note": "[compound 859, N-(5-((6-((R)-3-(4-chloro-3-fluorophenyl)isoxazolidine-2-yl)pyrimidine-4-yl)amino)-2-(4-((1R,4R)-5-ethyl-2,5-diazabicyclo [2.2.1]heptane-2-yl)piperidine-1-yl)-4-methoxyphenyl) acrylamide]", "Ba/F3 (NPH) Activity": "A (GI50 < 50 nM)"}, {"smiles": "C=CC(=O)Nc1cc(Nc2cc(N3OCC[C@@H]3c3ccc(F)c(Cl)c3F)ncn2)c(OC)cc1N1CCC(N2CCOCC2)CC1", "note": "[compound 606, N-(5-((6-((R)-3-(3-chloro-2,4-difluorophenyl)isoxazolidine-2-yl)pyrimidine-4-yl)amino)-4-methoxy-2-(4-morpholinopiperidine-1-yl)phenyl)acrylamide]", "Ba/F3 (NPH) Activity": "A (GI50 < 50 nM)"}, {"smiles": "C=CC(=O)Nc1cc(Nc2cc(N3OCC[C@@H]3c3cccc(C#N)c3)ncn2)c(OC)cc1N1CCC(N2C[C@@H]3C[C@H]2CO3)CC1", "note": "[compound 493, N-(2-(4-((1S,4S)-2-oxa-5-azabicyclo[2.2.1]heptane-5-yl)piperidine-1-yl)-5-((6-((R)-3-(3-cyanophenyl)isoxazolidine-2-yl)pyrimidine-4-yl)amino)-4-methoxyphenyl) acrylamide]", "Ba/F3 (NPH) Activity": "B (50 nM ≤ GI50 < 500 nM)"}, {"smiles": "C=CC(=O)Nc1cc(Nc2cc(N3OCC[C@@H]3c3ccc(Cl)c(Cl)c3F)ncn2)c(OC)cc1N1CCC(N2CCN(C(C)C)CC2)CC1", "note": "[compound 804, N-(5-((6-((R)-3-(3,4-dichloro-2-fluorophenyl)isoxazolidine-2-yl)pyrimidine-4-yl)amino)-2-(4-(4-isopropylpiperazine-1-yl)piperidine-1-yl)-4-methoxyphenyl) acrylamide]", "Ba/F3 (NPH) Activity": "A (GI50 < 50 nM)"}, {"smiles": "C=CC(=O)Nc1cc(Nc2cc(N3OCC[C@@H]3c3cccc(F)c3Cl)ncn2)c(OC)cc1N1CCC(N2CCN(C)CC2)CC1", "note": "[compound 560, N-(5-((6-((R)-3-(2-chloro-3-fluorophenyl)isoxazolidine-2-yl)pyrimidine-4-yl)amino)-4-methoxy-2-(4-(4-methylpiperazine-1-yl)piperidine-1-yl)phenyl) acrylamide]", "Ba/F3 (NPH) Activity": "A (GI50 < 50 nM)"}, {"smiles": "C=CC(=O)Nc1cc(Nc2cc(N3OCC[C@@H]3c3cc(F)cc(F)c3)ncn2)c(OC)cc1OCCC(C)(C)OC", "note": "[compound 495, N-(5-((6-((R)-3-(3,5-difluorophenyl)isoxazolidine-2-yl)pyrimidine-4-yl)amino)-4-methoxy-2-(3-methoxy-3-methylbutoxy)phenyl) acrylamide]", "Ba/F3 (NPH) Activity": "A (GI50 < 50 nM)"}, {"smiles": "C=CC(=O)Nc1cc(Nc2cc(N3OCC[C@@H]3Cc3cccc(F)c3C)ncn2)c(OC)cc1N1CCN(C2CC2)CC1", "note": "[compound 1038, N-(2-(4-cyclopropylpiperazine-1-yl)-5-((6-((S)-3-(3-fluoro-2-methylbenzyl)isoxazolidine-2-yl)pyrimidine-4-yl)amino)-4-methoxyphenyl) acrylamide]", "Ba/F3 (NPH) Activity": "A (GI50 < 50 nM)"}, {"smiles": "C=CC(=O)Nc1cc(Nc2cc(N3OCC[C@H]3Cc3ccccc3)ncn2)c(OC)cc1N1CCN(C2CCCC2)CC1", "note": "[compound 977, N-(5-((6-((R)-3-benzylisoxazolidine-2-yl)pyrimidine-4-yl)amino)-2-(4-cyclopentylpiperazine-1-yl)-4-methoxyphenyl) acrylamide]", "Ba/F3 (NPH) Activity": "C (500 nM ≤ GI50 < 5000 nM)"}, {"smiles": "C=CC(=O)Nc1cc(Nc2cc(N3OCC[C@@H]3Cc3ccccc3)ncn2)c(OC)cc1N1CCC(N2CCN(C)CC2)CC1", "note": "[compound 963, N-(5-((6-((S)-3-benzylisoxazolidine-2-yl)pyrimidine-4-yl)amino)-4-methoxy-2-(4-(4-methylpiperazine-1-yl)piperidine-1-yl)phenyl)acrylamide]", "Ba/F3 (NPH) Activity": "A (GI50 < 50 nM)"}, {"smiles": "C=CC(=O)Nc1cc(Nc2cc(N3OCC[C@@H]3c3cccc(C)c3F)ncn2)c(OC)cc1N1CC[C@@H](N(C)C)C1", "note": "[compound 860, N-(2-((R)-3-(dimethylamino)pyrolidine-1-yl)-5-((6-((R)-3-(2-fluoro-3-methylphenyl)isoxazolidine-2-yl)pyrimidine-4-yl)amino)-4-methoxyphenyl) acrylamide]", "Ba/F3 (NPH) Activity": "A (GI50 < 50 nM)"}, {"smiles": "C=CC(=O)Nc1cc(Nc2cc(N3OCC[C@@H]3c3ccc(C)nc3)ncn2)c(OC)cc1N1CC[C@H](N(C)C)C1", "note": "[Example 222, N-(2-((S)-3-(dimethylamino)pyrolidine-1-yl)-4-methoxy-5-((6-((R)-3-(6-methylpyridine-3-yl)isoxazolidine-2-yl)pyrimidine-4-yl)amino)phenyl)acrylamide]", "Ba/F3 (NPH) Activity": "B (50 nM ≤ GI50 < 500 nM)"}, {"smiles": "C=CC(=O)Nc1cc(Nc2cc(N3OCC[C@@H]3c3cc(F)ccc3F)ncn2)c(OC)cc1N(C)CCOC", "note": "[compound 327, N-(5-((6-((R)-3-(2,5-difluorophenyl)isoxazolidine-2-yl)pyrimidine-4-yl)amino)-4-methoxy-2-((2-methoxyethyl) (methyl)amino)phenyl)acrylamide]", "Ba/F3 (NPH) Activity": "B (50 nM ≤ GI50 < 500 nM)"}, {"smiles": "C=CC(=O)Nc1cc(Nc2cc(N3OCC[C@@H]3Cc3cccc(Cl)c3OC)ncn2)c(OC)cc1N1CCN(C2CC2)CC1", "note": "[compound 1053, N-(5-((6-((S)-3-(3-chloro-2-methoxybenzyl)isoxazolidine-2-yl)pyrimidine-4-yl)amino)-2-(4-cyclopropylpiperazine-1-yl)-4-methoxyphenyl) acrylamide]", "Ba/F3 (NPH) Activity": "A (GI50 < 50 nM)"}, {"smiles": "C=CC(=O)Nc1cc(Nc2cc(N3OCC[C@@H]3c3cccc(OC)c3)ncn2)c(OC)cc1N1CCC(N2CC[C@H](N(C)C)C2)CC1", "note": "[compound 729, N-(2-(4-((S)-3-(dimethylamino)pyrolidine-1-yl)piperidine-1-yl)-4-methoxy-5-((6-((R)-3-(3-methoxyphenyl)isoxazolidine-2-yl)pyrimidine-4-yl)amino)phenyl)acrylamide]", "Ba/F3 (NPH) Activity": "A (GI50 < 50 nM)"}, {"smiles": "C=CC(=O)Nc1cc(Nc2cc(N3OCC[C@@H]3c3cc(F)cc(F)c3)ncn2)c(OC)cc1N1CC[C@H](N2CCOCC2)C1", "note": "[Example 272, N-(5-((6-((R)-3-(3,5-difluorophenyl)isoxazolidine-2-yl)pyrimidine-4-yl)amino)-4-methoxy-2-((S)-3-morpholinopyrolidine-1-yl)phenyl)acrylamide]", "Ba/F3 (NPH) Activity": "B (50 nM ≤ GI50 < 500 nM)"}, {"smiles": "C=CC(=O)Nc1cc(Nc2cc(N3OCC[C@@H]3c3ccccc3)ncn2)c(OC)cc1N1CCC(N2C[C@@H](C)O[C@@H](C)C2)CC1", "note": "[Example 285, N-(2-(4-((2S,6R)-2,6-dimethylmorpholino)piperidine-1-yl)-4-methoxy-5-((6-((R)-3-phenylisoxazolidine-2-yl)pyrimidine-4-yl)amino)phenyl) acrylamide]", "Ba/F3 (NPH) Activity": "A (GI50 < 50 nM)"}, {"smiles": "C=CC(=O)Nc1cc(Nc2cc(N3OCC[C@@H]3c3ccc(Cl)c(Cl)c3F)ncn2)c(OC)cc1N1CC[C@H](N2CCOCC2)C1", "note": "[Example 295, N-(5-((6-((R)-3-(3,4-dichloro-2-fluorophenyl)isoxazolidine-2-yl)pyrimidine-4-yl)amino)-4-methoxy-2-((S)-3-morpholinopyrolidine-1-yl)phenyl)acrylamide]", "Ba/F3 (NPH) Activity": "C (500 nM ≤ GI50 < 5000 nM)"}, {"smiles": "C=CC(=O)Nc1cc(Nc2cc(N3OCC[C@@H]3c3ccc(F)c(F)c3)ncn2)c(OC)cc1N1CCC(N2CCN(CC)CC2)CC1", "note": "[compound 545, N-(5-((6-((R)-3-(3,4-difluorophenyl)isoxazolidine-2-yl)pyrimidine-4-yl)amino)-2-(4-(4-ethylpiperazine-1-yl)piperidine-1-yl)-4-methoxyphenyl) acrylamide]", "Ba/F3 (NPH) Activity": "A (GI50 < 50 nM)"}, {"smiles": "C=CC(=O)Nc1cc(Nc2cc(N3OCC[C@@H]3c3ccc(Cl)c(F)c3)ncn2)c(OC)cc1N1CC[C@H](N2CCOCC2)C1", "note": "[compound 365, N-(5-((6-((R)-3-(4-chloro-3-fluorophenyl)isoxazolidine-2-yl)pyrimidine-4-yl)amino)-4-methoxy-2-((S)-3-morpholinopyrolidine-1-yl)phenyl) acrylamide]", "Ba/F3 (NPH) Activity": "B (50 nM ≤ GI50 < 500 nM)"}, {"smiles": "C=CC(=O)Nc1cc(Nc2cc(N3OCC[C@@H]3c3ccc(C)nc3)ncn2)c(OC)cc1N1C[C@H]2C[C@@H]1CN2CC", "note": "[Example 51, N-(2-((1R,4R)-5-ethyl-2,5-diazabicyclo [2.2.1]heptane-2-yl)-4-methoxy-5-((6-((R)-3-(6-methylpyridine-3-yl)isoxazolidine-2-yl)pyrimidine-4-yl)amino)phenyl) acrylamide]", "Ba/F3 (NPH) Activity": "C (500 nM ≤ GI50 < 5000 nM)"}, {"smiles": "C=CC(=O)Nc1cc(Nc2cc(N3OCC[C@@H]3c3ccc(F)c(Cl)c3)ncn2)c(OC)cc1N1CC[C@@H](N(C)C)C1", "note": "[compound 756, N-(5-((6-((R)-3-(3-chloro-4-fluorophenyl)isoxazolidine-2-yl)pyrimidine-4-yl)amino)-2-((R)-3-(dimethylamino)pyrolidine-1-yl)-4-methoxyphenyl) acrylamide]", "Ba/F3 (NPH) Activity": "A (GI50 < 50 nM)"}]}]}
